Source: US20060020021A1, “Use of compounds derived from 2,3-dehydronaringenin for the treatment of inflammatory processes and pharmaceutical composition containing said derivatives” (FURFURAL ESPANOL, S.A., priority 2004, published 2006)

How the values were obtained:
[1] = tested on: paw edema in mice induced by carragenin; assay: Microscopic study and assessment of the injected plantar pad (edema, inflammatory infiltrate, degree 0-3); assay type: in vivo, male Swiss albino mice; conditions: treated group, 24 hours post-inoculation, 70 mg/kg i.p.
Procedure: The plantar pad area injected was extirpated at 24 hours post-inoculation; fixed in 10% buffered neutral formaldehyde, included in paraffin by the standard method, sectioned at 3 μm and stained with hematoxilin-eosin for its optical study which was carried out by two observers. The presence of edema and polynuclear neutrophils and monocytes was measured, being assessed as 0 (absence), 1 (slight), 2 (moderate) and 3 (intense) (FIGS. 3 to 6b).

[2] = tested on: paw edema in mice induced by carragenin; assay: Test of paw edema in mice induced by carragenin (paw volume); assay type: in vivo, male Swiss albino mice; conditions: 70 mg/kg intraperitoneally 1 h before intradermal carragenin; significant at 1 h (p<0.025), 5 h (p<0.005), 24 h (p<0.0005)
Procedure: The anti-inflammatory capacity of the product of Formula (I), wherein R is a potassium cation, was tested: [drawing 3] in male Swiss albino mice of 8 to 10 weeks of age (38-44 g), from the Servicio de Animales de Laboratorio (Laboratory Animals Department) of the University of Murcia. The animals were maintained under standard conditions (temperature of 22±2° C., humidity 60±4% and light/dark cycle of 12 hours) with food and drink ad libitum. The animals were anesthetized with ether in the moment of inducing inflammation and during the measurements of the volume of the paw. Test of Paw Edema in Mice Induced by Carragenin
The inflammation was caused by intradermal injection of 0.05 ml of 1% Lambda Carrageenan (Sigma-Aldrich, Madrid, Spain) in saline solution in the plantar pad of the right hind paw. The measurement of the edema was carried out with a digital calibrator (Proinsa, Vitoria, Spain), measuring the 3 largest diameters of the paw for the volume calculation. The measurements were carried out in triplicate. The volume of the paw was measured immediately before (0 hours) and at 1, 5 and 24 hours after causing inflammation. The compound of Formula (I) was dissolved in sterile saline solution and intraperitoneally administered (70 mg/kg) 1 h before causing inflammation. […] Groups of 10 animals were used. […]

`O=c1cc(-c2ccc(O)cc2)oc2cc(O)cc(O)c12` [2,3-DHNA, 2,3-dehydronaringenin] was tested, and the “samples with moderate inflammation (degree 2)” value [1] was 13.3%, the “samples with neither edema nor inflammatory infiltrate (degree 0)” value [1] was 60% and the “samples with slight inflammation (degree 1)” value [1] was 26.65%. The “Increases in the volume of inoculated paw, treated group vs control group” value [2] was “lower in the treated group than in the control group”.
